Measured values taken from ChEMBL document CHEMBL1201862, “PubChem BioAssay data set” (2004).
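Assay format: 96-well plates, 48-hour exposure. Here, GI50 denotes the concentration required for 50% inhibition of growth.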 Activity calls are given as the source filed them. No stated cut-off is given here; in the data, active = GI50 up to about 1.1 µM and inactive = higher.

Legend:
Test in all cases: inhibition of tumour cell growth, NCI panel, 48 h
SF-268 = test system: SF-268
SR = test system: SR
MOLT-4 = test system: MOLT-4
HCC 2998 = test system: HCC 2998
HCT-15 = test system: HCT-15
SF-295 = test system: SF-295
UACC-257 = test system: UACC-257
RPMI-8226 = test system: RPMI-8226
SW-620 = test system: SW-620
NCI-H23 = test system: NCI-H23
OVCAR-5 = test system: OVCAR-5
TK-10 = test system: TK-10
SK-MEL-2 = test system: SK-MEL-2
LOX IMVI = test system: LOX IMVI
HCT-116 = test system: HCT-116
M14 = test system: M14
A498 = test system: A498

SMILES	GI50 (SF-268)	GI50 (SR)	GI50 (MOLT-4)	GI50 (HCC 2998)	GI50 (HCT-15)	GI50 (SF-295)	GI50 (UACC-257)	GI50 (RPMI-8226)	GI50 (SW-620)	GI50 (NCI-H23)	GI50 (OVCAR-5)	GI50 (TK-10)	GI50 (SK-MEL-2)	GI50 (LOX IMVI)	GI50 (HCT-116)	GI50 (M14)	GI50 (A498)
O=[N+]([O-])c1ccc(-c2ccc(-c3csc(Nc4ccccn4)n3)o2)cc1	19.7 µM (inactive)	> 100 µM (inactive)	> 100 µM (inactive)	> 100 µM (inactive)	79.8 µM	46.3 µM (inactive)	> 100 µM (inactive)	> 100 µM (inactive)	> 100 µM (inactive)	> 10 µM (inactive)	> 100 µM (inactive)	26.9 µM (inactive)	> 100 µM (inactive)	63.4 µM (inactive)	47.9 µM (inactive)	59.6 µM (inactive)	–
O=C(Nc1ccccc1-c1n[nH]c(S)nc1=O)C(F)(F)F	> 100 µM (inactive)	> 100 µM (inactive)	> 100 µM (inactive)	> 100 µM (inactive)	> 100 µM	> 100 µM (inactive)	–	–	> 100 µM (inactive)	> 100 µM (inactive)	> 100 µM (inactive)	> 100 µM (inactive)	> 100 µM (inactive)	> 100 µM (inactive)	> 100 µM (inactive)	> 100 µM (inactive)	–
CC(=O)NC1C(OCc2ccccc2)OC(CO)C(O)C1OC(C)C(=O)N[C@@H](C)C(=O)N[C@H](CCC(=O)OCCNc1c2ccccc2nc2cccc([N+](=O)[O-])c12)C(N)=O (some centres undefined)	0.00394 µM (active)	3.64e-05 µM (active)	0.00385 µM (active)	0.000681 µM (active)	0.000166 µM	0.00427 µM (active)	0.00339 µM (active)	0.000782 µM (active)	0.000191 µM (active)	0.00148 µM (active)	0.00206 µM (active)	0.00344 µM (active)	0.00211 µM (active)	–	0.000195 µM (active)	0.00109 µM (active)	0.00501 µM (active)
Cn1c(=O)c2c(nc3n2C(CCl)CO3)n(C)c1=O (centres undefined)	> 100 µM (inactive)	> 100 µM (inactive)	> 100 µM (inactive)	> 100 µM (inactive)	> 100 µM	> 100 µM (inactive)	> 100 µM (inactive)	> 100 µM (inactive)	> 100 µM (inactive)	> 100 µM (inactive)	> 100 µM (inactive)	> 100 µM (inactive)	> 100 µM (inactive)	–	> 100 µM (inactive)	> 100 µM (inactive)	> 100 µM (inactive)
CC(C)(C)c1ccc(OCCOCCOc2ccc(C(C)(C)C)cc2S(N)(=O)=O)c(S(N)(=O)=O)c1	97.3 µM (inactive)	–	4.46 µM (inactive)	> 100 µM (inactive)	45.6 µM	> 100 µM (inactive)	45.6 µM (inactive)	7.55 µM (inactive)	> 100 µM (inactive)	> 100 µM (inactive)	> 100 µM (inactive)	> 100 µM (inactive)	67.8 µM (inactive)	23.7 µM (inactive)	17.4 µM (inactive)	61.4 µM (inactive)	20.3 µM (inactive)
O=c1[nH]c(-c2ccc([N+](=O)[O-])cc2)nc2ccc(Cl)cc12	> 100 µM (inactive)	–	23.6 µM (inactive)	> 100 µM (inactive)	94.4 µM	> 100 µM (inactive)	> 100 µM (inactive)	47.1 µM (inactive)	> 100 µM (inactive)	> 100 µM (inactive)	> 100 µM (inactive)	51.8 µM (inactive)	> 100 µM (inactive)	–	> 100 µM (inactive)	–	–
CSc1nc2c(ncn2C2OC(CO)C(O)C(O)C2O)c(=O)n1C (centres undefined)	> 100 µM (inactive)	–	> 100 µM (inactive)	> 100 µM (inactive)	> 100 µM	> 100 µM (inactive)	> 100 µM (inactive)	> 100 µM (inactive)	> 100 µM (inactive)	> 100 µM (inactive)	> 100 µM (inactive)	–	> 100 µM (inactive)	> 100 µM (inactive)	> 100 µM (inactive)	–	> 100 µM (inactive)
CC1(C)OC2C(CO)OC(N/C(=N/C#N)Oc3ccccc3)C2O1 (centres undefined)	> 100 µM (inactive)	> 100 µM (inactive)	> 100 µM (inactive)	> 100 µM (inactive)	> 100 µM	> 100 µM (inactive)	> 100 µM (inactive)	> 100 µM (inactive)	> 100 µM (inactive)	> 100 µM (inactive)	> 100 µM (inactive)	> 100 µM (inactive)	–	> 100 µM (inactive)	> 100 µM (inactive)	> 100 µM (inactive)	–
Cn1c(=O)c2ccccc2c2nc3ccccc3nc21	> 100 µM (inactive)	> 100 µM (inactive)	> 100 µM (inactive)	> 100 µM (inactive)	> 100 µM	59.2 µM (inactive)	> 100 µM (inactive)	> 100 µM (inactive)	> 100 µM (inactive)	> 100 µM (inactive)	> 100 µM (inactive)	45.5 µM (inactive)	> 100 µM (inactive)	–	> 100 µM (inactive)	–	–
C/C(CC(=O)Nc1cc(Cl)c(Cl)cc1Cl)=N\NC(N)=O	> 100 µM (inactive)	–	> 100 µM (inactive)	> 100 µM (inactive)	–	> 100 µM (inactive)	> 100 µM (inactive)	> 100 µM (inactive)	> 100 µM (inactive)	> 100 µM (inactive)	> 100 µM (inactive)	> 100 µM (inactive)	> 100 µM (inactive)	> 100 µM (inactive)	> 100 µM (inactive)	> 100 µM (inactive)	–
COC(=O)c1c(-c2ccccc2)cc2c3cc(-c4ccccc4)c(C(=O)OC)n3c3ccccc3n12	> 100 µM (inactive)	–	> 100 µM (inactive)	> 100 µM (inactive)	> 100 µM	> 100 µM (inactive)	> 100 µM (inactive)	> 100 µM (inactive)	> 100 µM (inactive)	> 100 µM (inactive)	> 100 µM (inactive)	> 100 µM (inactive)	> 100 µM (inactive)	> 100 µM (inactive)	> 100 µM (inactive)	> 100 µM (inactive)	> 100 µM (inactive)
C/C(=N\NC(=O)C(N)=O)c1c(O)cc(C)oc1=O	> 100 µM (inactive)	> 100 µM (inactive)	> 100 µM (inactive)	> 100 µM (inactive)	> 100 µM	> 100 µM (inactive)	> 100 µM (inactive)	–	> 100 µM (inactive)	> 100 µM (inactive)	–	> 100 µM (inactive)	> 100 µM (inactive)	> 100 µM (inactive)	> 100 µM (inactive)	> 100 µM (inactive)	> 100 µM (inactive)
O=C(Nc1ccn(CCOC(=O)c2ccccc2)c(=O)n1)c1ccccc1	> 100 µM (inactive)	> 100 µM (inactive)	–	–	> 100 µM	> 100 µM (inactive)	> 100 µM (inactive)	> 100 µM (inactive)	> 100 µM (inactive)	–	> 100 µM (inactive)	> 100 µM (inactive)	> 100 µM (inactive)	> 100 µM (inactive)	> 100 µM (inactive)	> 100 µM (inactive)	> 100 µM (inactive)
CC1CCC2(CC1)NN=c1s/c(=C\c3ccc(O)cc3)c(=O)n1N2 (centres undefined)	> 100 µM (inactive)	–	> 100 µM (inactive)	> 100 µM (inactive)	–	> 100 µM (inactive)	–	> 100 µM (inactive)	> 100 µM (inactive)	> 100 µM (inactive)	–	> 100 µM (inactive)	–	81.8 µM (inactive)	> 100 µM (inactive)	> 100 µM (inactive)	–
COc1ccc(S(=O)(=O)N/N=C/CN2C(=O)c3ccccc3C2=O)cc1OC	> 100 µM (inactive)	> 100 µM (inactive)	> 100 µM (inactive)	> 100 µM (inactive)	> 100 µM	> 100 µM (inactive)	> 100 µM (inactive)	> 100 µM (inactive)	> 100 µM (inactive)	> 100 µM (inactive)	–	–	> 100 µM (inactive)	> 100 µM (inactive)	> 100 µM (inactive)	> 100 µM (inactive)	> 100 µM (inactive)
CCOC(=O)NC(=O)c1cn(CCCCCCOC(=O)NCCCCCCNC(=O)OCCCCCCn2cc(C(=O)NC(=O)OCC)c(=O)[nH]c2=O)c(=O)[nH]c1=O	> 100 µM (inactive)	–	> 100 µM (inactive)	> 100 µM (inactive)	> 100 µM	> 100 µM (inactive)	> 100 µM (inactive)	> 100 µM (inactive)	> 100 µM (inactive)	–	–	–	> 100 µM (inactive)	> 100 µM (inactive)	> 100 µM (inactive)	> 100 µM (inactive)	> 100 µM (inactive)
O=[N+]([O-])c1ccc(/C=C/c2ccc(/N=N/c3ccc(/C=C/c4ccc([N+](=O)[O-])cc4S(=O)(=O)O)c(S(=O)(=O)O)c3)cc2S(=O)(=O)O)c(S(=O)(=O)O)c1	> 100 µM (inactive)	–	> 100 µM (inactive)	43.6 µM (inactive)	> 63.7 µM	> 100 µM (inactive)	> 100 µM (inactive)	–	> 100 µM (inactive)	> 100 µM (inactive)	> 100 µM (inactive)	–	> 100 µM (inactive)	> 100 µM (inactive)	> 100 µM (inactive)	–	> 100 µM (inactive)
Nc1nc2[nH]c(=O)cnc2c(=O)[nH]1 [ISOXANTHOPTERIN]	> 125 µM (inactive)	–	> 125 µM (inactive)	> 125 µM (inactive)	> 78.9 µM	> 125 µM (inactive)	> 125 µM (inactive)	> 125 µM (inactive)	> 125 µM (inactive)	> 125 µM (inactive)	> 99.1 µM (inactive)	–	> 125 µM (inactive)	> 125 µM (inactive)	> 125 µM (inactive)	–	> 125 µM (inactive)
